From US5262417A, “Antibacterial quinolone compounds” (The Upjohn Company, priority 1991, dated 1993)
Converted amounts (≈) assume the structure as drawn. Read-outs that look alike come from different tables or passages of the source.

Experiments:
Assay in all cases: Minimum inhibitory concentration (MIC) by agar dilution
Assay type in all cases: cell-based
Enterobacter cloacae = tested on: Enterobacter cloacae
Description: (§1) Briefly, MIC values are determined in unsupplemented Mueller Hinton Agar (MHA). The compounds tested are diluted serially into molten MHA at 47° C. The agar is poured into petri dishes and allowed to harden. The various bacteria used for testing are grown overnight on MHA at 35° C. and transferred to Trypticase soy broth (TSB) until a turbidity of 0.5 McFarland standard is obtained. The bacteria are diluted one to 20 in TSB and inoculated on the plates (1 μl using a Steers replicator).
as §1, with “Compounds of this invention can also be tested for in vitro antimicrobial activity using standard testing procedures such as the determination of minimum inhibitory concentration (MIC) by agar dilution as described in "Methods for Dilution Antimicrobial Susceptibility Tests for Bacteria That Grow Aerobically" (MFT) published Jan. […] Briefly,” for “Briefly,”, “(1μl” for “(1 μl”

[1] = tested on: Acinetobacter calcoaceticus; conditions: Acinetobacter calcoaceticus
Description: as §1, with “The antibacterial activity of the compounds of Formula IC was determined by using standard testing procedures such as the determination of minimum inhibitory concentration (MIC) by agar dilution as described in "Methods for Dilution Antimicrobial Susceptibility Tests for Bacteria That Grow Aerobically" (MFT) published January 1983 by the National Committee for Clinical Laboratory Standards, 771 East Lancaster Avenue, Villanova, Pa. 19084, USA. Briefly,” for “Briefly,”
(§2) Compounds of this invention can also be tested for in vitro antimicrobial activity using standard testing procedures such as the determination of minimum inhibitory concentration (MIC) by agar dilution as described in "Methods for Dilution Antimicrobial Susceptibility Tests for Bacteria That Grow Aerobically" (MFT) published Jan. 1983 by the National Committee for Clinical Laboratory Standards, 771 East Lancaster Avenue, Villanova, Penna. 19084, USA. Briefly, MIC values are determined in unsupplemented Mueller Hinton Agar (MHA). The compounds tested are diluted serially into molten MHA at 47° C. The agar is poured into petri dishes and allowed to harden. The various bacteria used for testing are grown overnight on MHA at 35° C. and transferred to Trypticase soy broth (TSB) until a turbidity of 0.5 McFarland standard is obtained. The bacteria are diluted one to 20 in TSB and inoculated on the plates (1μl using a Steers replicator). […] The MIC test results of selected of Formula B compounds of this invention are found in Tables B2-B9.

Citerobacter freundii = tested on: Citerobacter freundii
Description: (§3) The antibacterial activity of the compounds of Formula IC was determined by using standard testing procedures such as the determination of minimum inhibitory concentration (MIC) by agar dilution as described in "Methods for Dilution Antimicrobial Susceptibility Tests for Bacteria That Grow Aerobically" (MFT) published January 1983 by the National Committee for Clinical Laboratory Standards, 771 East Lancaster Avenue, Villanova, Pa. 19084, USA. Briefly, MIC values are determined in unsupplemented Mueller Hinton Agar (MHA). The compounds tested are diluted serially into molten MHA at 47° C. The agar is poured into petri dishes and allowed to harden. The various bacteria used for testing are grown overnight on MHA at 35° C. and transferred to Trypticase soy broth (TSB) until a turbidity of 0.5 McFarland standard is obtained. The bacteria are diluted one to 20 in TSB and inoculated on the plates (1 μl using a Steers replicator).
as §2

Escherichia coli = conditions: Escherichia coli
Description: as §3, §2

Klebsiella pneumoniae = tested on: Klebsiella pneumoniae
Description: as §3, §2

Proteus penneri = conditions: Proteus penneri
Description: as §3, §2

Pseudomonas aeruginosa = conditions: Pseudomonas aeruginosa
Description: as §3, §2

Serratia marcescens = conditions: 20 h
Description: as §3, §2

Staphylococcus aureus = conditions: Staphylococcus aureus
Description: as §3, §2

[2] = tested on: Staphylococcus epidermidis; conditions: 20 h
Description: as §3, §2

Streptococcus faecalis = conditions: Enterococcus faecalis
Description: as §3, §2

Streptococcus pneumoniae = conditions: Streptococcus pneumoniae
Description: as §3, §2

Streptococcus pyogenes = conditions: Streptococcus pyogenes
Description: as §3, §2

[3] = read-out: MINIMUM INHIBITORY CONCENTRATION
[4] = 20 h, read-out: MINIMUM INHIBITORY CONCENTRATION

C#CCn1cc(C(=O)O)c(=O)c2cc(F)c(N3CCNCC3)c(F)c21.CS(=O)(=O)O [C, (+,-)-6,8-difluoro-1,4-dihydro-4-oxo-7-(1-piperazinyl)-1-(2-propynyl)-3-quinolinecarboxylic acid methanesulfonate]
MIC (Enterobacter cloacae; UC9382, 20 h, read-out: Minimum Inhibitory Concentration): 1 µg/mL | MIC ([1]; UC12170, 20 h, read-out: Minimum Inhibitory Concentration, A. calcoaceticus UC 12170, Table CI): 8 µg/mL | MIC (Citerobacter freundii; Citrobacter freundii, UC3507, 20 h, read-out: Minimum Inhibitory Concentration): 1 µg/mL | MIC (Escherichia coli; UC6674, 20 h, read-out: Minimum Inhibitory Concentration, E. coli UC 6674, Table CI): 1 µg/mL | MIC (Escherichia coli; UC9451, 20 h, read-out: Minimum Inhibitory Concentration, E. coli UC 9451, Table CI): 2 µg/mL | MIC (Escherichia coli; UC9855, 20 h, read-out: Minimum Inhibitory Concentration, E. coli UC 9855, Table CI): 2 µg/mL | MIC (Escherichia coli; UC9952, 20 h, read-out: Minimum Inhibitory Concentration, E. coli UC 9952, Table CI): 1 µg/mL | MIC (Klebsiella pneumoniae; UC12081, 20 h, read-out: Minimum Inhibitory Concentration): 2 µg/mL | MIC (Proteus penneri; UC9679, 20 h, read-out: Minimum Inhibitory Concentration, P. penneri UC 9679, Table CI): 1 µg/mL | MIC (Pseudomonas aeruginosa; UC6676, 20 h, read-out: Minimum Inhibitory Concentration, Ps. aeruginosa UC 6676, Table CI): 16 µg/mL | MIC (Pseudomonas aeruginosa; UC9191, 20 h, read-out: Minimum Inhibitory Concentration, Ps. aeruginosa UC 9191, Table CI): 8 µg/mL | MIC (Pseudomonas aeruginosa; UC12120, 20 h, read-out: Minimum Inhibitory Concentration, Ps. aeruginosa UC 12120, Table CI): 8 µg/mL | MIC (Serratia marcescens; [3]): 0.25 µg/mL | MIC (Staphylococcus aureus; UC6685, 20 h, read-out: Minimum Inhibitory Concentration, S. aureus UC 6685, Table CI): 32 µg/mL | MIC (Staphylococcus aureus; UC9213, 20 h, read-out: Minimum Inhibitory Concentration, S. aureus UC 9213, Table CI): 32 µg/mL | MIC (Staphylococcus aureus; UC9218, 20 h, read-out: Minimum Inhibitory Concentration, S. aureus UC 9218, Table CI): 32 µg/mL | MIC (Staphylococcus aureus; UC9271, 20 h, read-out: Minimum Inhibitory Concentration, S. aureus UC 9271, Table CI): 32 µg/mL | MIC ([2]; read-out: Minimum Inhibitory Concentration): 16 µg/mL | MIC (Streptococcus faecalis; UC9217, 20 h, read-out: Minimum Inhibitory Concentration): > 64 µg/mL | MIC (Streptococcus pneumoniae; UC41, 20 h, read-out: Minimum Inhibitory Concentration, S. pneumoniae UC 41, Table CI): > 64 µg/mL | MIC (Streptococcus pyogenes; UC152, 20 h, read-out: Minimum Inhibitory Concentration, S. pyogenes UC 152, Table CI): 32 µg/mL

O=C(O)c1cn(C23CC(C2)C3)c2c(F)c(N3CCNCC3)c(F)cc2c1=O [No. 1, 1-(bicyclo[1.1.1]pent-1-yl)-6,8-difluoro-1,4-dihydro-4-oxo-7-(1-piperazinyl)-3-quinolinecarboxylic acid]
MIC (Enterobacter cloacae; [4]): 0.06 µg/mL (≈ 0.16 µM) | MIC ([1]; 20 h, read-out: MINIMUM INHIBITORY CONCENTRATION, Cult No. 12170, MHA): 0.25 µg/mL (≈ 0.666 µM) | MIC (Citerobacter freundii; [4]): 0.06 µg/mL (≈ 0.16 µM) | MIC (Escherichia coli; 20 h, read-out: MINIMUM INHIBITORY CONCENTRATION, Cult No. 6674, MHA): 0.06 µg/mL (≈ 0.16 µM) | MIC (Escherichia coli; 20 h, read-out: MINIMUM INHIBITORY CONCENTRATION, Cult No. 9451, MHA): 0.06 µg/mL (≈ 0.16 µM) | MIC (Escherichia coli; 20 h, read-out: MINIMUM INHIBITORY CONCENTRATION, Cult No. 9855, MHA): 0.06 µg/mL (≈ 0.16 µM) | MIC (Escherichia coli; 20 h, read-out: MINIMUM INHIBITORY CONCENTRATION, Cult No. 9952, MHA): 0.06 µg/mL (≈ 0.16 µM) | MIC (Klebsiella pneumoniae; [4]): 0.125 µg/mL (≈ 0.333 µM) | MIC (Proteus penneri; 20 h, read-out: MINIMUM INHIBITORY CONCENTRATION, Cult No. 9679, MHA): 0.5 µg/mL (≈ 1.33 µM) | MIC (Pseudomonas aeruginosa; 20 h, read-out: MINIMUM INHIBITORY CONCENTRATION, Cult No. 6676, MHA): 2 µg/mL (≈ 5.33 µM) | MIC (Pseudomonas aeruginosa; 20 h, read-out: MINIMUM INHIBITORY CONCENTRATION, Cult No. 9191, MHA): 1 µg/mL (≈ 2.66 µM) | MIC (Pseudomonas aeruginosa; 20 h, read-out: MINIMUM INHIBITORY CONCENTRATION, Cult No. 12120, MHA): 1 µg/mL (≈ 2.66 µM) | MIC (Serratia marcescens; [3]): 0.25 µg/mL (≈ 0.666 µM) | MIC (Staphylococcus aureus; 20 h, read-out: MINIMUM INHIBITORY CONCENTRATION, Cult No. 3665, MHA): 0.5 µg/mL (≈ 1.33 µM) | MIC (Staphylococcus aureus; 20 h, read-out: MINIMUM INHIBITORY CONCENTRATION, Cult No. 6685, MHA): 0.5 µg/mL (≈ 1.33 µM) | MIC (Staphylococcus aureus; 20 h, read-out: MINIMUM INHIBITORY CONCENTRATION, Cult No. 9213, MHA): 1 µg/mL (≈ 2.66 µM) | MIC (Staphylococcus aureus; 20 h, read-out: MINIMUM INHIBITORY CONCENTRATION, Cult No. 9218, MHA): 0.5 µg/mL (≈ 1.33 µM) | MIC (Staphylococcus aureus; 20 h, read-out: MINIMUM INHIBITORY CONCENTRATION, Cult No. 9271, MHA): 0.5 µg/mL (≈ 1.33 µM) | MIC [2, 3]: 0.25 µg/mL (≈ 0.666 µM) | MIC (Streptococcus faecalis; [4]): 2 µg/mL (≈ 5.33 µM) | MIC (Streptococcus pneumoniae; 20 h, read-out: MINIMUM INHIBITORY CONCENTRATION, Cult No. 41, MHA): 2 µg/mL (≈ 5.33 µM) | MIC (Streptococcus pyogenes; 20 h, read-out: MINIMUM INHIBITORY CONCENTRATION, Cult No. 152, MHA): 2 µg/mL (≈ 5.33 µM)

C#CC(C)(C)n1cc(C(=O)O)c(=O)c2cc(F)c(N3CCC(N)C3)c(F)c21 (racemic) [B]
MIC (Enterobacter cloacae; UC9382, 20 h, E. cloacae UC 9382, Table CI, read-out: Minimum Inhibitory Concentration): 0.25 µg/mL (≈ 0.666 µM) | MIC ([1]; UC12170, 20 h, A. calcoaceticus UC 12170, Table CI, read-out: Minimum Inhibitory Concentration): 0.5 µg/mL (≈ 1.33 µM) | MIC (Citerobacter freundii; Citrobacter freundii, UC3507, 20 h, C. freundii UC 3507, Table CI, read-out: Minimum Inhibitory Concentration): 0.125 µg/mL (≈ 0.333 µM) | MIC (Escherichia coli; UC6674, 20 h, E. coli UC 6674, Table CI, read-out: Minimum Inhibitory Concentration): 0.125 µg/mL (≈ 0.333 µM) | MIC (Escherichia coli; UC9451, 20 h, E. coli UC 9451, Table CI, read-out: Minimum Inhibitory Concentration): 0.125 µg/mL (≈ 0.333 µM) | MIC (Escherichia coli; UC9855, 20 h, E. coli UC 9855, Table CI, read-out: Minimum Inhibitory Concentration): 0.25 µg/mL (≈ 0.666 µM) | MIC (Escherichia coli; UC9952, 20 h, E. coli UC 9952, Table CI, read-out: Minimum Inhibitory Concentration): 0.125 µg/mL (≈ 0.333 µM) | MIC (Klebsiella pneumoniae; UC12081, 20 h, K. pneumoniae UC 12081, Table CI, read-out: Minimum Inhibitory Concentration): 0.25 µg/mL (≈ 0.666 µM) | MIC (Proteus penneri; UC9679, 20 h, P. penneri UC 9679, Table CI, read-out: Minimum Inhibitory Concentration): 1 µg/mL (≈ 2.66 µM) | MIC (Pseudomonas aeruginosa; UC6676, 20 h, Ps. aeruginosa UC 6676, Table CI, read-out: Minimum Inhibitory Concentration): 2 µg/mL (≈ 5.33 µM) | MIC (Pseudomonas aeruginosa; UC9191, 20 h, Ps. aeruginosa UC 9191, Table CI, read-out: Minimum Inhibitory Concentration): 2 µg/mL (≈ 5.33 µM) | MIC (Pseudomonas aeruginosa; UC12120, 20 h, Ps. aeruginosa UC 12120, Table CI, read-out: Minimum Inhibitory Concentration): 1 µg/mL (≈ 2.66 µM) | MIC (Serratia marcescens; S. marcescens, UC number not given, Table CI, read-out: Minimum Inhibitory Concentration): 1 µg/mL (≈ 2.66 µM) | MIC (Staphylococcus aureus; UC6685, 20 h, S. aureus UC 6685, Table CI, read-out: Minimum Inhibitory Concentration): 0.25 µg/mL (≈ 0.666 µM) | MIC (Staphylococcus aureus; UC9213, 20 h, S. aureus UC 9213, Table CI, read-out: Minimum Inhibitory Concentration): 0.5 µg/mL (≈ 1.33 µM) | MIC (Staphylococcus aureus; UC9218, 20 h, S. aureus UC 9218, Table CI, read-out: Minimum Inhibitory Concentration): 0.5 µg/mL (≈ 1.33 µM) | MIC (Staphylococcus aureus; UC9271, 20 h, S. aureus UC 9271, Table CI, read-out: Minimum Inhibitory Concentration): 0.5 µg/mL (≈ 1.33 µM) | MIC ([2]; S. epidermidis 30031, Table CI, read-out: Minimum Inhibitory Concentration): 0.25 µg/mL (≈ 0.666 µM) | MIC (Streptococcus faecalis; UC9217, 20 h, S. faecalis UC 9217, Table CI, read-out: Minimum Inhibitory Concentration): 2 µg/mL (≈ 5.33 µM) | MIC (Streptococcus pneumoniae; UC41, 20 h, S. pneumoniae UC 41, Table CI, read-out: Minimum Inhibitory Concentration): 2 µg/mL (≈ 5.33 µM) | MIC (Streptococcus pyogenes; UC152, 20 h, S. pyogenes UC 152, Table CI, read-out: Minimum Inhibitory Concentration): 1 µg/mL (≈ 2.66 µM)
